{"source": "the NIST ThermoML archive (doi:10.1021/acs.jced.6b00794)", "note": "Numbers after ± are expanded uncertainties.", "data": [{"assay": "refractive index (Na D-line) (dimensionless)", "settings": "293.15 K; 101.33 kPa; Liquid; Standard Abbe refractometry", "values": [{"smiles": "CC(=O)O", "note": "[acetic acid]", "refractive index": "1.3717 ± 0.0024"}, {"smiles": "CCO", "note": "[ethanol]", "refractive index": "1.3616 ± 0.0024"}, {"smiles": "C=COC(C)=O", "note": "[vinyl acetate]", "refractive index": "1.3926 ± 0.0024"}, {"smiles": "O", "note": "[water]", "refractive index": "1.3328 ± 0.0024"}]}]}
